Measurements published in patent EP1247803A2, “Indolinone compounds suitable for modulation of protein kinases” (Sugen, Inc., priority 1996, dated 1998).

Key:
[1] = target: T1, EGFR (Homo sapiens, UniProt P00533); test: EGFR ELISA assay (in vitro kinase activity, EGFR captured from A431 cell lysate); assay type: biochemical; design: concentration or dose not given beside the values
T1 construct: Add 7 ug A431 cell lysate per well (EGFR source); endogenous in cells; host or cells: A431
Outline: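 EGFR from A431 lysate was captured on plates coated with anti-EGFR antibody. Compounds were added 30 min before a 5 min phosphorylation with 3 µM ATP/5 mM MnCl2, which was stopped with 20 mM EDTA. Phosphotyrosine was detected with rabbit anti-phosphotyrosine, then a peroxidase-conjugated secondary and ABTS/H2O2, read at 410 nm.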

[2] = target: PDGF-R (Homo sapiens, UniProt P09619); test: PDGF-R ELISA; assay type: cell-based
Sequence of PDGF-R (P09619 33-1106, species assumed): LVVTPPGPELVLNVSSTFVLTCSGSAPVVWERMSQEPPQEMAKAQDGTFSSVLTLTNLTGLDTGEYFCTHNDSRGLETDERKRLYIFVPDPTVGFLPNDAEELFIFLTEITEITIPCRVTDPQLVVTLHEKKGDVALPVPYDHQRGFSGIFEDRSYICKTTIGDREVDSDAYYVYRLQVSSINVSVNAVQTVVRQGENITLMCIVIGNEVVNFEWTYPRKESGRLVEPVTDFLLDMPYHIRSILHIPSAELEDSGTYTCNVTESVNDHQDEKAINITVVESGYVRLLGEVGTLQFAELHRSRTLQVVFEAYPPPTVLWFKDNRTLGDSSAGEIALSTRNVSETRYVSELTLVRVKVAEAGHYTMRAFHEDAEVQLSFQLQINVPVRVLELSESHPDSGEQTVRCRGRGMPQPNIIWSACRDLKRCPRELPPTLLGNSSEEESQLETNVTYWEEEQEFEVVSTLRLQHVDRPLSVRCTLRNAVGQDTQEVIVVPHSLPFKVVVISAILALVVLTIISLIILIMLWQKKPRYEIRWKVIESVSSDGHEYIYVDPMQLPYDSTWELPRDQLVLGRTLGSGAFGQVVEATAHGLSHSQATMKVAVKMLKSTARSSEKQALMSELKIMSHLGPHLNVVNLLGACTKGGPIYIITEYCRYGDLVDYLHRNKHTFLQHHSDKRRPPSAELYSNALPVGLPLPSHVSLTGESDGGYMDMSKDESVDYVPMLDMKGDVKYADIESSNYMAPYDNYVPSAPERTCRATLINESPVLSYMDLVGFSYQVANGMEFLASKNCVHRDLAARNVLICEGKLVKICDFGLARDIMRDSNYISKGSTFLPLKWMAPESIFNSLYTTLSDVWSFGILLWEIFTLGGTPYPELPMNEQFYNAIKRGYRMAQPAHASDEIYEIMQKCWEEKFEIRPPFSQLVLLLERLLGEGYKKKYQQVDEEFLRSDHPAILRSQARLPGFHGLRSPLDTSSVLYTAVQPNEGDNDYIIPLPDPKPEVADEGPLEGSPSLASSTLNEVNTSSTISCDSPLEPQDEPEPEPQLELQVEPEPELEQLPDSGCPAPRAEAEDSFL
Excerpt: A PDGF-R ELISA is described in International Patent Publication No. WO 96/40116, published December 19, 1996 by Tang et al.

[3] = tested on: MET; test: MET biochemical kinase assay; design: species or system human; concentration or dose not given beside the values
Outline: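 Plates coated with anti-rabbit Fc bind a rabbit anti-MET antibody that captures receptor from cell lysates; unbound protein is washed off before compound and ATP-containing kinase buffer go in.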

T1 sequence (P00533 25-1210): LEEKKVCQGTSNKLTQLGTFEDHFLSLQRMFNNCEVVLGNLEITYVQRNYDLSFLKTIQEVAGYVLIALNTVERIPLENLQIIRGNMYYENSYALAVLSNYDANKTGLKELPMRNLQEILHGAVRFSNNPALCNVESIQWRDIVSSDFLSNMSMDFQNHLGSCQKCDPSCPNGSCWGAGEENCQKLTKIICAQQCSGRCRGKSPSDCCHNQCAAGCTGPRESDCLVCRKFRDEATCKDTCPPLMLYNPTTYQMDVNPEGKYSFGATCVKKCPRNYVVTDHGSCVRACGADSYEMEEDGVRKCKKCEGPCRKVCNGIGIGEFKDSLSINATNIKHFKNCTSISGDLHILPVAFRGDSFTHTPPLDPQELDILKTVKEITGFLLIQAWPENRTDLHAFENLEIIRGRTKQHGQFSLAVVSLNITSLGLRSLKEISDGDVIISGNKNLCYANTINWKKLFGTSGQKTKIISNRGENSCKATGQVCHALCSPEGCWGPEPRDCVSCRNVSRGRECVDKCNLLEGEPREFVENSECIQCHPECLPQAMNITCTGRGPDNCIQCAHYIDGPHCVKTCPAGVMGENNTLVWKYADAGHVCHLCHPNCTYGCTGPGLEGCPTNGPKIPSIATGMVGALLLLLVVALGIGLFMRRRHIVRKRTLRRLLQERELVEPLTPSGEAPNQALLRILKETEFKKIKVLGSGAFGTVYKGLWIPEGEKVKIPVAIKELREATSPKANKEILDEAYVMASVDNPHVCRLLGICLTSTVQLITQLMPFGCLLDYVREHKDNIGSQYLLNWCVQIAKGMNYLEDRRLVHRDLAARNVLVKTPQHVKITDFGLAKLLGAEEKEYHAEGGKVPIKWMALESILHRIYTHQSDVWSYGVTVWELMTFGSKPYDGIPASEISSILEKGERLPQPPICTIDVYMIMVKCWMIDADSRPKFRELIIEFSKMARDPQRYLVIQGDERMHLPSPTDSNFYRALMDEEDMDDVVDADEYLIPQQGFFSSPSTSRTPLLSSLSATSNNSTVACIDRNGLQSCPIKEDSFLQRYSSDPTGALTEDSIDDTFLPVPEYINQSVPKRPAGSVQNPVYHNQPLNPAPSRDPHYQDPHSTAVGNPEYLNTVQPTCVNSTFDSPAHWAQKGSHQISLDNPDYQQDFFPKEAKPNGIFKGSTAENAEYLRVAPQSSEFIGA

Compound | Biochem EGFR %Inhibition [1] [%] | PDGF Kinase %Inhibition [2] [%] | Met Kinase % Inhibition [3] [%]
Cc1cc(C=C2C(=O)Nc3ccc(I)cc32)cc(C(C)(C)C)c1O [10726/B04] | 71.1 | 39.1 | 78.9
O=C1Nc2ccc(I)cc2C1=Cc1ccc(Br)o1 [10726/B05] | 49.0 | 27.1 | 96.8
Cc1cn(C)cc1C=C1C(=O)Nc2ccc(I)cc21 [10726/B06] | 6.6 | 34.1 | 76.1
O=C1Nc2ccc(I)cc2C1=Cc1cc(O)c2c(c1O)CCCC2 [10726/B07] | 72.4 | -59.5 | 98.5
O=C1Nc2ccc(F)cc2C1=C1C(=O)Nc2ccc(I)cc21 [10726/B08] | 23.6 | 24.6 | 60.2
CCc1ccc(C=C2C(=O)Nc3ccc(I)cc32)s1 [10726/B10] | 40.8 | 6.2 | 58.5
COc1ccc(C=C2C(=O)Nc3ccc(I)cc32)cc1 [10726/B11] | 39.4 | 23.3 | 64.4
CCOC(=O)c1[nH]c(C=C2C(=O)Nc3ccc(Br)c(C)c32)c(C(=O)OC)c1C [10726/C03] | 29.8 | 28.4 | 38.9
Cc1cc(C=C2C(=O)Nc3ccc(Br)c(C)c32)cc(C(C)(C)C)c1O [10726/C04] | 58.4 | 36.6 | 91.7
Cc1c(Br)ccc2c1C(=Cc1ccc(Br)o1)C(=O)N2 [10726/C05] | 16.7 | 25.2 | 58.0
Cc1cn(C)cc1C=C1C(=O)Nc2ccc(Br)c(C)c21 [10726/C06] | -0.9 | 36.0 | 42.6
Cc1c(Br)ccc2c1C(=Cc1cc(O)c3c(c1O)CCCC3)C(=O)N2 [10726/C07] | 40.8 | -67.7 | 84.9
